Measurements: patent US9249145B2, “Heterocyclic derivatives of pyrazol-4-yl-pyrrolo[2,3-d]pyrimidines as janus kinase inhibitors” (Incyte Holdings Corporation, priority 2009, dated 2016)
Where a name gives a salt, the structure may show the parent alone.

Tests used:
Jak2 (a.a. 828-1132) = molecular target: T1, Jak2 (a.a. 828-1132) (Homo sapiens, UniProt O60674); experiment: In vitro JAK kinase assay (HTRF, phosphorylation of biotinylated peptide), JAK2; format: biochemical; settings: 1 mM ATP; Examples 12-91; read-out: JAK2 IC50 (nM) @ 1 mM ATP
T1 construct: Jak2 (a.a. 828-1132); His tag (N); made in house; host or cells: insect cells (baculovirus)
T1 sequence (O60674 828-1132): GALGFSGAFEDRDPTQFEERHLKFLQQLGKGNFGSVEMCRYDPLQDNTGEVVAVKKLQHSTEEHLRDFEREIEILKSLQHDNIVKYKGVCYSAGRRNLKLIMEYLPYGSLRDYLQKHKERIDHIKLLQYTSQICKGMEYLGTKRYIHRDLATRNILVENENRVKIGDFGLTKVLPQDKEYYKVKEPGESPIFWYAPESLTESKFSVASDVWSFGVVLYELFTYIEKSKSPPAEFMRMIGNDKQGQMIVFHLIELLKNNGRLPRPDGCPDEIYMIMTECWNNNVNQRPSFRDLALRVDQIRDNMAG
Method: (§1) Compounds herein were tested for inhibitory activity of JAK targets according to the following in vitro assay described in Park et al., Analytical Biochemistry 1999, 269, 94-104. The catalytic domains of human JAK1 (a.a. 837-1142), Jak2 (a.a. 828-1132) and Jak3 (a.a. 781-1124) with an N-terminal His tag were expressed using baculovirus in insect cells and purified. The catalytic activity of JAK1, JAK2 or JAK3 was assayed by measuring the phosphorylation of a biotinylated peptide. The phosphorylated peptide was detected by homogenous time resolved fluorescence (HTRF). IC50s of compounds were measured for each kinase in the 40 microL reactions that contain the enzyme, ATP and 500 nM peptide in 50 mM Tris (pH 7.8) buffer with 100 mM NaCl, 5 mM DTT, and 0.1 mg/mL (0.01%) BSA. The ATP concentration in the reactions was 90 μM for Jak1, 30 μM for Jak2 and 3 μM for Jak3 for Km conditions. For the 1 mM IC50 measurements, ATP concentration in the reactions was 1 mM. Reactions were carried out at room temperature for 1 hr and then stopped with 20 μL 45 mM EDTA, 300 nM SA-APC, 6 nM Eu-Py20 in assay buffer (Perkin Elmer, Boston, Mass.). Binding to the Europium labeled antibody took place for 40 minutes and HTRF signal was measured on a Fusion plate reader (Perkin Elmer, Boston, Mass.). See Tables 1, 2, 3, and 4 for data related to compounds of the invention.

[1] = molecular target: T2, human JAK1 (a.a. 837-1142) (Homo sapiens, UniProt P23458); experiment: In vitro JAK kinase assay (HTRF, phosphorylation of biotinylated peptide), JAK1; format: biochemical; settings: 1 mM ATP; Examples 12-91; read-out: JAK1 IC50 (nM) @ 1 mM ATP
T2 construct: The catalytic domains of human JAK1 (a.a. 837-1142); His tag (N); made in house; host or cells: insect cells (baculovirus)
T2 sequence (P23458 849-1154): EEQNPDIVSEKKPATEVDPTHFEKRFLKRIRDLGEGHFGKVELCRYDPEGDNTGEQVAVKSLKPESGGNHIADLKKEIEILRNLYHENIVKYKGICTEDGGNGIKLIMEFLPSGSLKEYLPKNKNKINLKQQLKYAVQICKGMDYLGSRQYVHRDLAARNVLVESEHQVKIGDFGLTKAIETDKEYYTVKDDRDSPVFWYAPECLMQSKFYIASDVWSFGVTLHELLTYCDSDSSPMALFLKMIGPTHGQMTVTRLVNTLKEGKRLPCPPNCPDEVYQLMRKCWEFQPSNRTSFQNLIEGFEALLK
Method: as §1

Row | SMILES | IC50 (Jak2 (a.a. 828-1132)) [nM] | IC50 [1] [nM]
1 | N#CCC(CN1CCN(C(=O)c2ccc(C(F)F)cc2F)CC1)n1cc(-c2ncnc3[nH]ccc23)cn1 (centres unmarked) [Example 14, 4-{4-[4-(difluoromethyl)-2-fluorobenzoyl]piperazin-1-yl}-3-[4-(7H-pyrrolo[2,3-d]pyrimidin-4-yl)-1H-pyrazol-1-yl]butanenitrile] | 10 to 50 | < 10
2 | N#CCC(CN1CCN(C(=O)c2c(F)cc(C#N)cc2F)CC1)n1cc(-c2ncnc3[nH]ccc23)cn1 (centres unmarked) [Example 15, 4-[(4-{3-cyano-2-[4-(7H-pyrrolo[2,3-d]pyrimidin-4-yl)-1H-pyrazol-1-yl]propyl}piperazin-1-yl)carbonyl]-3,5-difluorobenzonitrile phosphate Salt] | 50 to 100 | < 10
3 | N#CCC(CN1CCN(C(=O)c2ncc(Cl)cc2F)CC1)n1cc(-c2ncnc3[nH]ccc23)cn1 (centres unmarked) [Example 16, 4-{4-[(5-chloro-3-fluoropyridin-2-yl)carbonyl]piperazin-1-yl}-3-[4-(7H-pyrrolo[2,3-d]pyrimidin-4-yl)-1H-pyrazol-1-yl]butanenitrile] | < 10 | < 10
4 | N#CCC(CN1CCN(C(=O)c2ncc(C#N)cc2F)CC1)n1cc(-c2ncnc3[nH]ccc23)cn1 (centres unmarked) [Example 17, 6-[(4-{3-cyano-2-[4-(7H-pyrrolo[2,3-d]pyrimidin-4-yl)-1H-pyrazol-1-yl]propyl}piperazin-1-yl)carbonyl]-5-fluoronicotinonitrile] | > 100 | 10 to 50
5 | COc1ccc(C(=O)N2CCN(CC(CC#N)n3cc(-c4ncnc5[nH]ccc45)cn3)CC2)cc1F (centres unmarked) [Example 18, 4-[4-(3-fluoro-4-methoxybenzoyl)piperazin-1-yl]-3-[4-(7H-pyrrolo[2,3-d]pyrimidin-4-yl)-1H-pyrazol-1-yl]butanenitrile phosphate Salt] | 50 to 100 | 10 to 50
6 | N#CCC(CN1CCN(C(=O)c2ncc(C(F)(F)F)cc2F)CC1)n1cc(-c2ncnc3[nH]ccc23)cn1 (centres unmarked) [Example 19, 4-(4-{[3-fluoro-5-(trifluoromethyl)pyridin-2-yl]carbonyl}piperazin-1-yl)-3-[4-(7H-pyrrolo[2,3-d]pyrimidin-4-yl)-1H-pyrazol-1-yl]butanenitrile] | > 100 | 10 to 50
7 | N#CCC(CN1CCN(C(=O)c2ccc(C#N)cn2)CC1)n1cc(-c2ncnc3[nH]ccc23)cn1 (centres unmarked) [Example 20, 6-[(4-{3-cyano-2-[4-(7H-pyrrolo[2,3-d]pyrimidin-4-yl)-1H-pyrazol-1-yl]propyl}piperazin-1-yl)carbonyl]nicotinonitrile] | > 100 | 10 to 50
8 | N#CCC(CN1CCN(C(=O)c2ccc(F)cn2)CC1)n1cc(-c2ncnc3[nH]ccc23)cn1 (centres unmarked) [Example 21, 4-{4-[(5-fluoropyridin-2-yl)carbonyl]piperazin-1-yl}-3-[4-(7H-pyrrolo[2,3-d]pyrimidin-4-yl)-1H-pyrazol-1-yl]butanenitrile trifluoroacetate Salt] | 50 to 100 | 10 to 50
9 | N#CCC(CN1CCN(S(=O)(=O)c2ccc3[nH]ncc3c2)CC1)n1cc(-c2ncnc3[nH]ccc23)cn1 (centres unmarked) [Example 22, 4-[4-(1H-indazol-5-ylsulfonyl)piperazin-1-yl]-3-[4-(7H-pyrrolo[2,3-d]pyrimidin-4-yl)-1H-pyrazol-1-yl]butanenitrile] | < 10 | < 10
10 | Cc1cc(F)ccc1NC(=O)N1CCN(CC(CC#N)n2cc(-c3ncnc4[nH]ccc34)cn2)CC1 (centres unmarked) [Example 23, 4-(2-(4-(7H-pyrrolo[2,3-d]pyrimidin-4-yl)-1H-pyrazol-1-yl)-3-cyanopropyl)-N-(4-fluoro-2-methylphenyl)piperazine-1-carboxamide] | > 100 | 10 to 50
11 | N#CCC(CN1CCN(C(=O)c2ccc(Cl)cc2F)CC1)n1cc(-c2ncnc3[nH]ccc23)cn1 (centres unmarked) [Example 26, 3-(4-(7H-pyrrolo[2,3-d]pyrimidin-4-yl)-1H-pyrazol-1-yl)-4-(4-(4-chloro-2-fluorobenzoyl)piperazin-1-yl)butanenitrile] | < 10 | < 10
12 | N#CCC(CN1CCN(C(=O)c2c(F)cc(Cl)cc2F)CC1)n1cc(-c2ncnc3[nH]ccc23)cn1 (centres unmarked) [Example 27, 3-(4-(7H-pyrrolo[2,3-d]pyrimidin-4-yl)-1H-pyrazol-1-yl)-4-(4-(4-chloro-2,6-difluorobenzoyl)piperazin-1-yl)butanenitrile] | < 10 | < 10
13 | Cc1ccc(C(=O)N2CCN(CC(CC#N)n3cc(-c4ncnc5[nH]ccc45)cn3)CC2)c(F)c1 (centres unmarked) [Example 28, 3-(4-(7H-pyrrolo[2,3-d]pyrimidin-4-yl)-1H-pyrazol-1-yl)-4-(4-(2-fluoro-4-methylbenzoyl)piperazin-1-yl)butanenitrile] | < 10 | < 10
14 | N#CCC(CN1CCN(C(=O)c2c(F)cc(F)cc2F)CC1)n1cc(-c2ncnc3[nH]ccc23)cn1 (centres unmarked) [Example 29, 3-(4-(7H-pyrrolo[2,3-d]pyrimidin-4-yl)-1H-pyrazol-1-yl)-4-(4-(2,4,6-trifluorobenzoyl)piperazin-1-yl)butanenitrile] | < 10 | < 10
15 | N#CCC(CN1CCN(C(=O)c2ccc(F)cc2F)CC1)n1cc(-c2ncnc3[nH]ccc23)cn1 (centres unmarked) [Example 30, 3-(4-(7H-pyrrolo[2,3-d]pyrimidin-4-yl)-1H-pyrazol-1-yl)-4-(4-(2,4-difluorobenzoyl)piperazin-1-yl)butanenitrile] | < 10 | < 10
16 | N#CCC(CN1CCN(C(=O)c2ccc(O)cc2F)CC1)n1cc(-c2ncnc3[nH]ccc23)cn1 (centres unmarked) [Example 31, 3-(4-(7H-pyrrolo[2,3-d]pyrimidin-4-yl)-1H-pyrazol-1-yl)-4-(4-(2-fluoro-4-hydroxybenzoyl)piperazin-1-yl)butanenitrile trifluoroacetate salt] | 10 to 50 | < 10
17 | N#CCC(CN1CCN(C(=O)c2cc(C(F)(F)F)ccc2F)CC1)n1cc(-c2ncnc3[nH]ccc23)cn1 (centres unmarked) [Example 32, 3-(4-(7H-pyrrolo[2,3-d]pyrimidin-4-yl)-1H-pyrazol-1-yl)-4-(4-(2-fluoro-5-(trifluoromethyl)benzoyl)piperazin-1-yl)butanenitrile] | < 10 | < 10
18 | N#CCC(CN1CCN(C(=O)c2cccc(F)c2F)CC1)n1cc(-c2ncnc3[nH]ccc23)cn1 (centres unmarked) [Example 33, 3-(4-(7H-pyrrolo[2,3-d]pyrimidin-4-yl)-1H-pyrazol-1-yl)-4-(4-(2,3-difluorobenzoyl)piperazin-1-yl)butanenitrile] | < 10 | < 10
19 | COc1ccc(C(=O)N2CCN(CC(CC#N)n3cc(-c4ncnc5[nH]ccc45)cn3)CC2)c(F)c1F (centres unmarked) [Example 34, 3-(4-(7H-pyrrolo[2,3-d]pyrimidin-4-yl)-1H-pyrazol-1-yl)-4-(4-(2,3-difluoro-4-methoxybenzoyl)piperazin-1-yl)butanenitrile] | 10 to 50 | < 10
20 | N#CCC(CN1CCN(C(=O)c2c(O)cccc2F)CC1)n1cc(-c2ncnc3[nH]ccc23)cn1 (centres unmarked) [Example 35, 3-(4-(7H-pyrrolo[2,3-d]pyrimidin-4-yl)-1H-pyrazol-1-yl)-4-(4-(2-fluoro-6-hydroxybenzoyl)piperazin-1-yl)butanenitrile] | < 10 | < 10
21 | N#CCC(CN1CCN(C(=O)c2ccc(F)cc2)CC1)n1cc(-c2ncnc3[nH]ccc23)cn1 (centres unmarked) [Example 36, 3-(4-(7H-pyrrolo[2,3-d]pyrimidin-4-yl)-1H-pyrazol-1-yl)-4-(4-(4-fluorobenzoyl)piperazin-1-yl)butanenitrile] | 10 to 50 | < 10
22 | Cc1cc(C(=O)N2CCN(CC(CC#N)n3cc(-c4ncnc5[nH]ccc45)cn3)CC2)ccc1F (centres unmarked) [Example 37, 3-(4-(7H-pyrrolo[2,3-d]pyrimidin-4-yl)-1H-pyrazol-1-yl)-4-(4-(4-fluoro-3-methylbenzoyl)piperazin-1-yl)butanenitrile] | 10 to 50 | < 10
23 | N#CCC(CN1CCN(C(=O)c2ccc(Cl)cn2)CC1)n1cc(-c2ncnc3[nH]ccc23)cn1 (centres unmarked) [Example 38, 3-(4-(7H-pyrrolo[2,3-d]pyrimidin-4-yl)-1H-pyrazol-1-yl)-4-(4-(5-chloropicolinoyl)piperazin-1-yl)butanenitrile] | 10 to 50 | < 10
24 | N#CCC(CN1CCN(C(=O)c2ccc(F)cc2Cl)CC1)n1cc(-c2ncnc3[nH]ccc23)cn1 (centres unmarked) [Example 39, 3-(4-(7H-pyrrolo[2,3-d]pyrimidin-4-yl)-1H-pyrazol-1-yl)-4-(4-(2-chloro-4-fluorobenzoyl)piperazin-1-yl)butanenitrile] | 10 to 50 | < 10
25 | N#CCC(CN1CCN(C(=O)c2ncc(F)cc2F)CC1)n1cc(-c2ncnc3[nH]ccc23)cn1 (centres unmarked) [Example 40, 3-(4-(7H-pyrrolo[2,3-d]pyrimidin-4-yl)-1H-pyrazol-1-yl)-4-(4-(3,5-difluoropicolinoyl)piperazin-1-yl)butanenitrile] | 10 to 50 | < 10
